This note sets out measurements from article PMC4374867, “The Novel Tubulin Polymerization Inhibitor MHPT Exhibits Selective Anti-Tumor Activity against Rhabdomyosarcoma In Vitro and In Vivo” (PLoS ONE, 2015).

This experiment relates to T1, tubulin (alpha- and beta-tubulin).
T1 construct: with alpha-/beta-tubulin heterodimer
In words: cell-free fluorescence-based tubulin polymerization assay (Cytoskeleton BK011P). The format is biochemical, Bos taurus.

The structures appear in SMILES notation.

As to `COc1cccc(C=C2SC(=Nc3ccc(O)cc3)NC2=O)c1` [MHPT, 2-((4-hydroxyphenyl)imino)-5-(3-methoxybenzylidene)thiazolidin-4-one], half-maximal inhibition (IC50) required 6.28 µM.
